Source: US4692438A, “Pyridazo-diazepines, diazocines, and -triazepines having anti-hypertensive activity” (Hoffmann-La Roche Inc., priority 1984, dated 1987)

Biological target: T1, angiotensin converting enzyme (Oryctolagus cuniculus, UniProt P12822)
T1 sequence (P12822 34-1310): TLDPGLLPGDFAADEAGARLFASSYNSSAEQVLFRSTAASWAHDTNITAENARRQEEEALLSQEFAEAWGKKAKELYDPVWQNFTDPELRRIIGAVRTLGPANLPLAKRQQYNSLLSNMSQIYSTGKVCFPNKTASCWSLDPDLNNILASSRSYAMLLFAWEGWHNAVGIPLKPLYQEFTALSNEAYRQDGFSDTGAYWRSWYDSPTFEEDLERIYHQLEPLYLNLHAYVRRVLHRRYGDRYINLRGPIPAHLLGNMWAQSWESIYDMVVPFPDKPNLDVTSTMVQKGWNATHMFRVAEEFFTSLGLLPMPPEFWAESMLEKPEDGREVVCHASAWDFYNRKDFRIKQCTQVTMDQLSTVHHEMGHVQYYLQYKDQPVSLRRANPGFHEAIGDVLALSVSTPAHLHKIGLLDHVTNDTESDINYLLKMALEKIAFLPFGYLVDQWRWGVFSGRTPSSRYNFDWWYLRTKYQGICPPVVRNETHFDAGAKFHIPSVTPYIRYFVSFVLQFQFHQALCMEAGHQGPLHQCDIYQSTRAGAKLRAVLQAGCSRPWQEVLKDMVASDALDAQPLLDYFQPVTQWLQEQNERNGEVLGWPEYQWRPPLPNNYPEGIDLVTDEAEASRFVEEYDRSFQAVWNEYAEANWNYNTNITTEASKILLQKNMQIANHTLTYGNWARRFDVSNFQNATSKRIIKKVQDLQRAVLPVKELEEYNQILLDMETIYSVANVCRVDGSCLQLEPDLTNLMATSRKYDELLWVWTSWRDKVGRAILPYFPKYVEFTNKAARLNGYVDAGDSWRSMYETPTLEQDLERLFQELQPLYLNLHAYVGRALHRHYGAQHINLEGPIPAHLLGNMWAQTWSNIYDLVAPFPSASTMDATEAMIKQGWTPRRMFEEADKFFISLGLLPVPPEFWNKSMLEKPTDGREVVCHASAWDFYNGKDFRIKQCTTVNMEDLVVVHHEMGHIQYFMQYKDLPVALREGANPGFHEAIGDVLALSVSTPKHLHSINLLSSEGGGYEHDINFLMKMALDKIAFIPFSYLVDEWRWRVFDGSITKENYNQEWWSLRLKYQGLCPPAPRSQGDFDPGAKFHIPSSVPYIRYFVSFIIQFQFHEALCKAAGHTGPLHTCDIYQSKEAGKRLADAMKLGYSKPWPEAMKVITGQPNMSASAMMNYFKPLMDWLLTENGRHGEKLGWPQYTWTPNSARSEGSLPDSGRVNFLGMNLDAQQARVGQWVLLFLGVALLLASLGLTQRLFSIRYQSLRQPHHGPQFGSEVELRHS
Assay: in vitro inhibition of angiotensin converting enzyme (cleavage of hippuryl-histidyl-leucine)
Assay type: biochemical
Settings: substrate hippuryl-histidyl-leucine 2 mM; potassium phosphate buffer pH 8.3, 100 mM; NaCl 300 mM; 24 minutes at 37° C.
Procedure: The activity of the compounds of formula I and the aforementioned salts in inhibiting angiotensin converting enzyme in vitro can be determined by the following test.
The method used is based on the method of Cushman and Cheung (Biochem. Pharmacol., 20. 1637-1648) incorporating the modifications introduced by Hayakari et al (Anal. Biochem., 84. 361-369). The substrate, which is hippuryl-histidyl-leucine, 2 mM, is incubated with angiotensin converting enzyme in the presence or absence of various concentrations of test substance in potassium phosphate buffer (pH 8.3; 100 mM) containing sodium chloride (300 mM) for 24 minutes at 37° C. (total value 500 μl). If the test substance is an ester, it is appropriate to cleave it by means of hog liver esterase before carrying out the test. The reaction is terminated by the addition of 3 ml of potassium phosphate buffer (pH 8.3; 200 mM) at 0° C. 2,4,6-Trichloro-s-triazine (3%) in 1.5 ml of dioxane and the mixture is agitated until the yellow chromophore has developed fully. The samples are then centrifuged to remove any precipitate which has formed. The yellow chromophore formed by the reaction of the 2,4,6-trichloro-s-triazine with free hippuric acid is measured spectrophoto metrically at 382 nm. The IC50 values are defined as the concentration of test substance which reduces by 50% the cleavage of hippuryl-histidyl-leucine by antiotensin converting enzyme under the aforementioned conditions.
The results obtained in the foregoing test using representative compounds of formula I as the test substance are compiled in the following Table: […]

Row | IC50 [nM] | SMILES
1 | 2.6 | O=C(O)[C@@H]1CCCN2CCC[C@H](CS)C(=O)N12 [Compound B, octahydro-9(S)-mercaptomethyl-10-oxo-pyridazo[1,2-a][1,2]diazepine-1(S)-carboxylic acid]
2 | 4 | O=C(O)[C@@H]1CCCN2C(=O)CC[C@H](CS)C(=O)N12 [Compound A, octahydro-9(S)-mercaptomethyl-6,10-dioxo-6H-pyridazo[1,2-a][1,2]diazepine-1(S)-carboxylic acid]
3 | 19 | O=C(O)[C@@H]1CCCN2C(=O)CCCC(CS)C(=O)N12 (stereo partly drawn) [Compound C, decahydro-10(R,S)-mercaptomethyl-6,11-dioxo-6H-pyridazo[1,2-a][1,2]diazocine-1(S)-carboxylic acid]
4 | 51 | O=C(O)[C@@H]1CCCN2C(=O)CN(Cc3ccccc3)C(CS)C(=O)N12 (single isomer, unassigned) [Compound D]
